Results as given in patent US20070123571A1, “Use of a compound in the treatment of sleep disorders” (priority 2003, published 2007).
Structures can show the parent of a compound that is named as a salt.

Key:
[1] = Karolinska 9-point scale: alertness / sleepiness on waking; type: in vivo, human
Source text: By the term felt alert is meant that an individual felt at least alert on waking. Preferably, the term is defined as the individual felt alert, very alert or extremely alert in accordance with the Karolinska 9-point scale. By the term felt sleepy is meant that an individual felt sleepy on waking. Preferably, the term is defined as the individual felt sleepy or very sleepy in accordance with points 8 or 9 of the Karolinska 9-point scale. Preferably, by the use of the present invention, the response of feeling extremely alert, very alert or alert as determined, for instance, in accordance with the Karolinska 9-point scale, is improved by at least 2%, more preferably, by at least, 5%, most preferably by at least 10%, as compared with an equivalent dose of placebo. Preferably, by the use of the present invention, the response of feeling sleepy and needing to make some effort to stay awake or very sleepy, as determined, for instance, in accordance with points 8 and 9 of the Karolinska 9 point scale, is improved (i.e. decreased) by at least 2%, more preferably, by at least, 4%, most preferably, by at least 10%, as compared with an equivalent dose of placebo.

[2] = single doses 10 mg or 20 mg sustained release at bedtime, volunteers, compared with placebo; cited from earlier work
[3] = Loughborough sleep log, morning log: awoke refreshed / quality of sleep responses; type: in vivo, human
Source text: Typically, the percentage of individuals who, after taking a dose of triprolidine before sleeptime, wake refreshed after sleeping is in the range 1-100%, more typically, 5-70%, most typically 10-35%. An especially typical range as aforesaid is 15-30% or even more especially 20-30%. Typically, by the terms “waking refreshed” or “wake refreshed” is meant that an individual felt at least refreshed on waking, preferably, the terms are defined as the individual felt very refreshed or refreshed in accordance with the Loughborough sleep log.
The degree of refreshedness and quality of sleep may be determined by the “morning” log of the Loughborough sleep log with the highest degree of refreshedness or quality of sleep being represented as 1 and the lowest being represented as 5. Accordingly, the percentage increase in refreshedness or quality of sleep is measured in this context by the decrease in the mean refreshedness or quality of sleep.
Preferably, by the use of the present invention, the response of awakening very refreshed or refreshed, as determined, for instance, by the morning log of the Loughborough sleep log, is improved by at least 20%, more preferably, by at least, 30%, most preferably by at least 40%, as compared with an equivalent dose of placebo.
Preferably, by the use of the present invention, the response of sleeping extremely well or very well, as determined, for instance, in accordance with the morning log of the Loughborough sleep log, is improved by at least 20%, more preferably, at least, 35%, most preferably at least 50%, as compared with an equivalent dose of placebo.
Preferably, by the use of the present invention, the response of sleeping extremely well or very well, as determined, for instance, in accordance with the morning log of the Loughborough sleep log, is found for at least 20% of individuals, more preferably, at least 25%, most preferably, at least 30%. For example over 35% of individuals had such a response.

SMILES: Cc1ccc(/C(=C\CN2CCCC2)c2ccccn2)cc1 [TRP•HCl•H2O]
- (b) I feel (i) sleepy, [and need to make] some effort or (ii) very sleepy, a great effort to keep awake ([1]; 2.5 mg dose, Monday): 11.5%
- Karolinska 9-point scale (a) I feel extremely alert, very alert or alert ([1]; 2.5 mg dose, Monday): 21.3%
- (b) I feel (i) sleepy, [and need to make] some effort or (ii) very sleepy, a great effort to keep awake ([1]; 2.5 mg dose, Tuesday): 13.1%
- Karolinska 9-point scale (a) I feel extremely alert, very alert or alert ([1]; 2.5 mg dose, Tuesday): 21.3%
- (b) I feel (i) sleepy, [and need to make] some effort or (ii) very sleepy, a great effort to keep awake ([1]; 2.5 mg dose, Wednesday): 6.5%
- Karolinska 9-point scale (a) I feel extremely alert, very alert or alert ([1]; 2.5 mg dose, Wednesday): 21.0%
- (b) I feel (i) sleepy, [and need to make] some effort or (ii) very sleepy, a great effort to keep awake ([1]; 5 mg dose, Monday): 12.5%
- Karolinska 9-point scale (a) I feel extremely alert, very alert or alert ([1]; 5 mg dose, Monday): 6.3%
- (b) I feel (i) sleepy, [and need to make] some effort or (ii) very sleepy, a great effort to keep awake ([1]; 5 mg dose, Tuesday): 17.5%
- Karolinska 9-point scale (a) I feel extremely alert, very alert or alert ([1]; 5 mg dose, Tuesday): 9.5%
- (b) I feel (i) sleepy, [and need to make] some effort or (ii) very sleepy, a great effort to keep awake ([1]; 5 mg dose, Wednesday): 12.7%
- Karolinska 9-point scale (a) I feel extremely alert, very alert or alert ([1]; 5 mg dose, Wednesday): 17.5%
- sleep onset latency (time required to fall asleep) [2]: did not significantly alter
- total sleep time [2]: no effect
- wakefulness during sleep [2]: no effect
- Loughborough Sleep Log: Awoke Very Refreshed or Refreshed Responses ([3]; 2.5 mg dose, Monday): 23%
- Loughborough Sleep Log: Last Night I Slept Extremely Well or Very Well Responses ([3]; 2.5 mg dose, Monday): 41.4%
- Loughborough Sleep Log: Awoke Very Refreshed or Refreshed Responses ([3]; 2.5 mg dose, Tuesday): 23%
- Loughborough Sleep Log: Last Night I Slept Extremely Well or Very Well Responses ([3]; 2.5 mg dose, Tuesday): 41.8%
- Loughborough Sleep Log: Awoke Very Refreshed or Refreshed Responses ([3]; 2.5 mg dose, Wednesday): 25.8%
- Loughborough Sleep Log: Last Night I Slept Extremely Well or Very Well Responses ([3]; 2.5 mg dose, Wednesday): 37.9%
- Loughborough Sleep Log: Awoke Very Refreshed or Refreshed Responses ([3]; 5 mg dose, Monday): 11.5%
- Loughborough Sleep Log: Last Night I Slept Extremely Well or Very Well Responses ([3]; 5 mg dose, Monday): 50.9%
- Loughborough Sleep Log: Awoke Very Refreshed or Refreshed Responses ([3]; 5 mg dose, Tuesday): 8.2%
- Loughborough Sleep Log: Last Night I Slept Extremely Well or Very Well Responses ([3]; 5 mg dose, Tuesday): 28.8%
- Loughborough Sleep Log: Awoke Very Refreshed or Refreshed Responses ([3]; 5 mg dose, Wednesday): 14.8%
- Loughborough Sleep Log: Last Night I Slept Extremely Well or Very Well Responses ([3]; 5 mg dose, Wednesday): 39.3%
